Reference: patent publication US11208497B2, “Antibodies comprising C-terminal light chain polypeptide extensions and conjugates and methods of use thereof” (ZYMEWORKS INC., priority 2013, dated 2021)

Tested on: CD30 antigen positive Karpas 299 cells
Assay: In vitro cell proliferation assay, Karpas 299 cells (Example 18)
Assay type: cell-based

Substance “B-MCvcPABC-MMAE: Brentuximab (B) without light chain extension conjugated to MCvcPABC-MMAE, DAR 3.5 [reference compound]” has an EC50 of 8 pM.
